From ChEMBL document CHEMBL1121501, “Synthesis and preliminary binding studies of 4,4-ditritio-(-)-nicotine of high specific activity” (J Med Chem, 1980)

Columns and labels:
Rattus norvegicus [1] = species: Rattus norvegicus
Description: Compound was evaluated for the binding affinity at crude mitochondrial fraction of rat whole brain at 13 fmol of binding sites/mg of protein

Rattus norvegicus [2] = species: Rattus norvegicus; remark: listed apart in the source
Description: Compound was evaluated for the binding affinity at crude mitochondrial fraction of rat whole brain at 7 nmol/mg of protein.

SMILES: CN1CCC[C@H]1c1cccnc1
- Ka (Rattus norvegicus [1]): 4.7e+06 M⁻¹
- Ka (Rattus norvegicus [2]): 4400 M⁻¹
